Paper PMC9386376, “Discovery of spirooxindole-derived small-molecule compounds as novel HDAC/MDM2 dual inhibitors and investigation of their anticancer activity” (Frontiers in Oncology, 2022)
Like-named read-outs stand apart in the source and are kept apart here.

Assays:
[1] = target: T1, GST-tagged MDM2 (Homo sapiens, UniProt Q00987); test: HTRF enzyme inhibition assay, MDM2; type: biochemical; settings: compound at 1 μM
T1 construct: purchased Cisbio Co. Ltd
Protocol: The enzymatic assay of test compounds is using the HTRF-based method provided by Cisbio Co. Ltd. In brief, the target compounds to be tested were prepared into samples with a concentration of 1 μM, which was added to GST-tagged MDM2 and HDAC1 proteins, respectively, then biotinylated substrate p53 peptide and HTRF detection reagents were added. The data obtained were processed by the ratio method, and the inhibition rates of MDM2 and HDAC1 were calculated. The detailed experimental procedures are according to the manufacturer’s protocols.

[2] = tested on: A431 cells; test: MTT antiproliferative assay, A431
Protocol: (§1) The cytotoxicity assay was performed with MTT method as previously described ([73], [88], [89]).

[3] = tested on: MCF-7 cells; test: MTT antiproliferative assay, MCF-7
Protocol: as §1

[4] = target: HDAC1 (Homo sapiens, UniProt Q13547); test: HTRF enzyme inhibition assay, HDAC1; settings: for % enzyme inhibition HDAC: compound at 1 μM, HTRF, method names HDAC1 protein; for inhibition at 1 µM: read-out: % enzyme inhibition HDAC
HDAC1, sequence (Q13547 whole entry): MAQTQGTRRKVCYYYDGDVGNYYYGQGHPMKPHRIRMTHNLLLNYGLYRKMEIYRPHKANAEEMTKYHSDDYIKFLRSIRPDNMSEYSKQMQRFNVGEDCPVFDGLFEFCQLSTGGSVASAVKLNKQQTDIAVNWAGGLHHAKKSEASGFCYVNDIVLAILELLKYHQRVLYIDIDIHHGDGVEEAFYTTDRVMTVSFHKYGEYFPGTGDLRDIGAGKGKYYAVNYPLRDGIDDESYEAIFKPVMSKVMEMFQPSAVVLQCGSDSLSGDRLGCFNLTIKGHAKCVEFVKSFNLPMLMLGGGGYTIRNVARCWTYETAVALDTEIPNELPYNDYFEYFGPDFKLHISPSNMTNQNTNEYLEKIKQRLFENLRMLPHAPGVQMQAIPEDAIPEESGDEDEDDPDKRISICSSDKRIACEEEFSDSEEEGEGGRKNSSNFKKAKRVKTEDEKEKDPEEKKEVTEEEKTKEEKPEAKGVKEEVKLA

[5] = tested on: HCT116 cells; test: MTT antiproliferative assay, HCT116
Protocol: as §1

[6] = tested on: MCF-7 cells; test: Annexin V-FITC/PI double staining, flow cytometry; type: cell-based, human; settings: MCF-7, 5.0 μM, 24 h
Protocol: It was reported that the inactivation of HDAC and/or MDM2 could increase the percentage of apoptosis cells ([85]–[87]). Therefore, three methods were applied to assess the effect of MDM2-HDAC dual inhibitor 11b on the apoptosis of MCF-7 cells. […] Subsequently, the annexin V-FITC/propidium iodide (PI) double staining method was carried out to quantitatively detect the effect of compound 11b on cell apoptosis (Figure 9B).
Cells were collected after incubation, then fixed with 75% ice-cold ethanol and stored at -20°C for 1 h. The cells were then harvested with 0.25% trypsin (without EDTA) and centrifuged at 2000 rpm for 5min. Then, the harvested cells were washed with ice-cold PBS twice and resuspended in 500 μL of 1× binding buffer, which was then added to 5 μL of annexin V-FITC and incubated at room temperature in the dark for 15 min. After adding 10 μL of propidium iodide (PI), the cells were incubated at room temperature in the dark. After another 15 min incubation, the cells were collected and analyzed by flow cytometry.

[7] = read-out: IC50 A431, MTT, A431 human epidermal carcinoma, mean ± standard of at least three replicates
[8] = read-out: IC50 MCF-7, MTT, MCF-7 human breast cancer, mean ± standard of at least three replicates
[9] = read-out: IC50 HCT116, MTT, HCT116 human colorectal cancer, mean ± standard of at least three replicates
[10] = Homo sapiens, A-431, read-out: IC50 A431
[11] = Homo sapiens, MCF7, read-out: IC50 MCF-7
[12] = Homo sapiens, HCT-116, read-out: IC50 HCT116

T1 sequence (Q00987 whole entry): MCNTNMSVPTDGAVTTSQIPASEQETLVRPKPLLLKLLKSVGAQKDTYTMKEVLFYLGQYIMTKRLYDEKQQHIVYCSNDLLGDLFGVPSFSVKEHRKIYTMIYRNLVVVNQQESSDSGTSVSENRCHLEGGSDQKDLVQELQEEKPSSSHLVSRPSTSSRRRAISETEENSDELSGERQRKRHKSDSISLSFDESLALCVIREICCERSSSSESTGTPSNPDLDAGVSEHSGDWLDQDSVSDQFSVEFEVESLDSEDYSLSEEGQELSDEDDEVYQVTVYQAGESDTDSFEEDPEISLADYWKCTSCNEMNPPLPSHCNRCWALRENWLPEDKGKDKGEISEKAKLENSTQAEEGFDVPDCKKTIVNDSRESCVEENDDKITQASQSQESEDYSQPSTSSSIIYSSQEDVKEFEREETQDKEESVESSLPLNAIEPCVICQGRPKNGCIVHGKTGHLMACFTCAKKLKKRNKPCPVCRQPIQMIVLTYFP

Compound	% enzyme inhibition MDM2 [1]	IC50 [2, 7]	IC50 [3, 8]	% enzyme inhibition HDAC [4]	IC50 [5, 9]	inhibition at 1 µM [1]	melting point	IC50 [2, 10]	IC50 [3, 11]	inhibition at 1 µM [4]	IC50 [5, 12]	apoptotic cells [6]
N^1-(4-((3R,6'S,7'R,7a'S)-6-chloro-6'-(4-fluorobenzoyl)-2-oxo-1',6',7',7a'-tetrahydro-3'H-spiro[indoline-3,5'-pyrrolo[1,2-c]thiazol]-7'-yl)phenyl)-N^6-hydroxyadipamide [7x]	62%	3.43 ± 0.73 µM	2.9 ± 0.56 µM	73%	3.45 ± 0.57 µM							
O=C(COCC(=O)Nc1ccc([C@@H]2[C@H]3CSCN3[C@]3(C(=O)Nc4cc(Cl)ccc43)[C@H]2C(=O)c2ccccc2)cc1)NO [7u, N-(4-((3R,6'S,7'R,7a'S)-6'-benzoyl-6-chloro-2-oxo-1',6',7',7a'-tetrahydro-3'H-spiro[indoline-3,5'-pyrrolo[1,2-c]thiazol]-7'-yl)phenyl)-2-(2-(hydroxyamino)-2-oxoethoxy)acetamide]						61%	167.1 to 168.5 °C	3.64 ± 0.56 µM	3.47 ± 0.92 µM	54%	4.59 ± 0.91 µM	
COc1ccc(C2=N[C@@H](c3ccc(Cl)cc3)[C@@H](c3ccc(Cl)cc3)N2C(=O)N2CCNC(=O)C2)c(OC(C)C)c1 [Nutlin-3, reference compound]								9.72 ± 1.66 µM	9.75 ± 2.97 µM		11 ± 2.42 µM	28.23%
O=C(CCCCCCC(=O)Nc1ccccc1)NO [SAHA, vorinostat]												7.56%
O=C(CCCCC(=O)N1CCC(C(=O)Nc2ccc([C@@H]3[C@H]4CSCN4[C@]4(C(=O)Nc5cc(Cl)ccc54)[C@H]3C(=O)c3ccccc3)cc2)CC1)NO [11a, N-(4-((3R,6'S,7'R,7a'S)-6'-benzoyl-6-chloro-2-oxo-1',6',7',7a'-tetrahydro-3'H-spiro[indoline-3,5'-pyrrolo[1,2-c]thiazol]-7'-yl)phenyl)-1-(6-(hydroxyamino)-6-oxohexanoyl)piperidine-4-carboxamide]						62%	170.3 to 171.5 °C	4.62 ± 0.78 µM	4.48 ± 1.46 µM	70%	4.32 ± 0.9 µM	
N^1-(4-((3R,6'S,7'R,7a'S)-6-chloro-6'-(3-methoxybenzoyl)-2-oxo-1',6',7',7a'-tetrahydro-3'H-spiro[indoline-3,5'-pyrrolo[1,2-c]thiazol]-7'-yl)phenyl)-N^6-hydroxyadipamide [7w]	60%	3.32 ± 0.68 µM	3.77 ± 0.93 µM	69%	3.91 ± 0.84 µM							
Nc1ccccc1NC(=O)CCCCC(=O)Nc1ccc([C@@H]2[C@H]3CSCN3[C@]3(C(=O)Nc4cc(Cl)ccc43)[C@H]2C(=O)c2ccccc2)cc1 [9c, N^1-(2-aminophenyl)-N^6-(4-((3R,6'S,7'R,7a'S)-6'-benzoyl-6-chloro-2-oxo-1',6',7',7a'-tetrahydro-3'H-spiro[indoline-3,5'-pyrrolo[1,2-c]thiazol]-7'-yl)phenyl)adipamide]						57%	148.9 to 150 °C			40%		
CN1C[C@@H](c2ccc(NC(=O)CCCCCCC(=O)NO)cc2)[C@H](C(=O)c2ccccc2)[C@@]12C(=O)Nc1cc(Cl)ccc12 [13a, N^1-(4-((3R,3'S,4'R)-3'-benzoyl-6-chloro-1'-methyl-2-oxospiro[indoline-3,2'-pyrrolidin]-4'-yl)phenyl)-N^8-hydroxyoctanediamide]						52%	126.7 to 127.9 °C			65%		
O=C(CCCCCCC(=O)Nc1ccc([C@@H]2[C@@H](c3ccccc3)N[C@]3(C(=O)Nc4cc(Cl)ccc43)[C@H]2C(=O)c2ccccc2)cc1)NO [15a, N^1-(4-((3R,3'S,4'R,5'S)-3'-benzoyl-6-chloro-2-oxo-5'-phenylspiro[indoline-3,2'-pyrrolidin]-4'-yl)phenyl)-N^8-hydroxyoctanediamide]						67%	146.5 to 147.6 °C	6.99 ± 0.92 µM	5.71 ± 1.03 µM	61%	8.45 ± 2.44 µM	
